Molecules are shown by their SMILES. Some results are limits rather than exact numbers.

For the test, the target named is T1, Human Aryl Hydrocarbon Receptor (AHR) (Homo sapiens, UniProt P35869).
T1 construct: purchased INDIGO Bioscience IB06001-32; host or cells: AHR Reporter Cell (proprietary kit cells)
T1 sequence (P35869 11-848): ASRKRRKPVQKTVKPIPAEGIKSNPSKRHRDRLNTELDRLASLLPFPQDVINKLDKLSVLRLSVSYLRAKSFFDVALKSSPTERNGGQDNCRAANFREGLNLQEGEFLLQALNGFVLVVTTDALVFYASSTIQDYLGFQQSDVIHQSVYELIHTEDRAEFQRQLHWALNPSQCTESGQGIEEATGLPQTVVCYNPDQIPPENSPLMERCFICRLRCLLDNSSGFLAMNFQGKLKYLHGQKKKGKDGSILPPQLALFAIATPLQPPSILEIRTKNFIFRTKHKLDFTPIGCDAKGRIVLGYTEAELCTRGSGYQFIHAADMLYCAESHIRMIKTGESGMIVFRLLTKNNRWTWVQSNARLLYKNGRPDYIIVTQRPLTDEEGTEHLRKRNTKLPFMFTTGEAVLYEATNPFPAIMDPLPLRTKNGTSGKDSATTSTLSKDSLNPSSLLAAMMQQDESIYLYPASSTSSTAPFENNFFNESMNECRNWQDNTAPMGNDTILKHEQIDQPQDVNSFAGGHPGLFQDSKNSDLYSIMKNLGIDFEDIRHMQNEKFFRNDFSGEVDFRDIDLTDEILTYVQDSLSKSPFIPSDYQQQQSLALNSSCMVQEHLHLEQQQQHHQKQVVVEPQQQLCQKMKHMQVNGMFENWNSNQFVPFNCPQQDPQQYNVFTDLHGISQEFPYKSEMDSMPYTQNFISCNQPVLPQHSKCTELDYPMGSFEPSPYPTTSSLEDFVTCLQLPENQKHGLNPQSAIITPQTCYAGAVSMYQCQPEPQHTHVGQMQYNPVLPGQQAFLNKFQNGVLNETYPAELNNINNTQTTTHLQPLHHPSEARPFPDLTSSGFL
The experiment in a line: AHR agonist reporter assay in human cell line (INDIGO luciferase reporter).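 Further: firefly luciferase luminescence read on a plate reader, values normalized against positive and negative controls.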 The test is classed as cell-based. Conditions: reporter cells, 24 hours incubation, second line of cell; read-out: AHR abEC50.
For `CC(C)c1ncc(-c2ccnc3c(F)cccc23)cc1O` [Compound 54], the EC50 is over 100 nM.

Take `CC(C)c1c(O)cc(-c2cc(F)c3nccnc3c2)cc1O` [Compound 36]: the EC50 is over 100 nM.

For the molecule `CC(C)c1nc2c(cc1O)CC(c1ccccc1)O2` (stereo not drawn) [Compound 127, 6-isopropyl-2-phenyl-2H,3H-furo[2,3-b]pyridin-5-ol], the EC50 is over 100 nM. With `CC(C)c1c(O)cc(-c2cncc3ccc(F)cc23)cc1O` [Compound 32], the EC50 is over 100 nM. As to `CC(C)c1onc(/C=C/c2ccccc2)c1O` [Compound 109, 5-isopropyl-3-[(E)-2-phenylethenyl]-1,2-oxazol-4-ol], the EC50 was over 100 nM. Turning to `CC(C)c1ncc(-c2cncc3ccc(F)cc23)cc1O` [Compound 83], the EC50 was over 100 nM. With `CC(C)c1ncc(-c2cccc3ccc(C(=O)O)nc23)cc1O` [Compound 76] the figure was over 100 nM; with `CC(C)c1c(O)cc(-c2cccc3ncccc23)cc1O` [Compound 20], over 100 nM. With `CC(C)c1c(O)cc(-c2ccc3nccc(F)c3c2)cc1O` [Compound 8] the figure was over 100 nM.

For the molecule `CC(C)c1ncc(-c2cc3cnccc3cc2F)cc1O` [Compound 85], the EC50 is over 100 nM. The result for `CC(=O)c1c(O)cc(/C=C/c2ccccc2)cc1O` [Compound 108] reads 143 nM; that for `CC(C)c1c(O)cc(-c2ccc3nccc(C#N)c3c2)cc1O` [Compound 30], over 100 nM; that for `CC(C)c1c(O)cc(-c2cnc3cccc(O)c3c2)cc1O` [Compound 23], over 100 nM. The result for `CC(C)c1ncc(/C=C/c2ccccn2)cc1O` [Compound 136] reads over 100 nM; that for `CC(C)c1ncc(-c2cccc3ncccc23)cc1O` [Compound 71], over 100 nM; that for `CC(C)c1ncc(-c2cnc3c(F)cc(N)cc3c2)cc1O` [Compound 53], over 100 nM. With `Cc1cnc2ccc(-c3cnc(C(C)C)c(O)c3)cc2c1` [Compound 77] the figure was over 100 nM; with `COc1cc(/C=C/c2ccccc2)cc(O)c1C(C)C` [Compound 137], under 8 nM. For `CC(C)c1ncc(-c2ccnc3ccc(F)cc23)cc1O` [Compound 55], the EC50 is over 100 nM. The result for `FC(F)(F)c1ccc(Nc2nccc(-c3cccc(Cl)c3)n2)cc1` [Reference, reference compound] reads 17.1 nM; that for `CC(C)c1c(O)cc(-c2ccnc3ccc(F)cc23)cc1O` [Compound 4], over 100 nM. With `COc1cc2ncccc2cc1-c1cc(O)c(C(C)C)c(O)c1` [Compound 21] the figure was over 100 nM; with `CC(C)c1ncc(-c2ccc3nccc(F)c3c2)cc1O` [Compound 59], over 100 nM; with `CC(C)c1c(O)cc(-c2ccc(F)c3ccc(C(F)(F)F)nc23)cc1O` [Compound 13], over 100 nM. With `COc1ccc2ccc(-c3cc(O)c(C(C)C)c(O)c3)cc2n1` [Compound 27], the EC50 is over 100 nM. In the case of `CC(C)c1ncc(-c2cc(F)c3ncccc3c2)cc1O` [Compound 57], the EC50 is over 100 nM. For `Cc1cnc2ccc(-c3cc(O)c(C(C)C)c(O)c3)cc2c1` [Compound 26], the EC50 is over 100 nM. With `CC(C)c1ncc(-c2nccc3cccnc23)cc1O` [Compound 95] the figure was over 100 nM; with `CC(C)c1c(O)cc([S+]([O-])c2ccccc2)cc1O` (stereo not drawn) [Compound 130, 2-isopropyl-5-(phenylsulfinyl) benzene-1,3-diol], over 400 nM. The result for `CC(C)c1ncc(-c2nc3ccccc3[nH]2)cc1O` [Compound 101] reads 94.4 nM. With `CC(C)c1ncc(-c2c(Cl)cc3c(O)ncnc3c2F)cc1O` [Compound 89] the figure was over 100 nM. Take `CC(C)c1c(O)cc(-c2cccc3ccc(C(=O)O)nc23)cc1O` [Compound 25]: the EC50 was over 100 nM. With `CC(C)c1ncc(-c2ccc3nccc(C#N)c3c2)cc1O` [Compound 81] the figure was over 100 nM.

Source of the values: US20250136556A1, “NOVEL MODULATORS OF THE ARYL HYDROCARBON RECEPTOR AND METHODS OF USE THEREOF” (Allianthera (Suzhou) Biopharmaceutical Co., Ltd., priority 2021, published 2025).
